Results: US20260183274A1, “PDK1 REGULATORY COMPOUND AND COMPOSITION CONTAINING THE SAME” (PROVIBIO CO., LTD., priority 2024, published 2026)

Key:
[1] = tested on: T cells isolated from mouse spleens; assay: T cell proliferation inhibition (CFSE flow cytometry, anti-CD3/anti-CD28 stimulation); type: cell-based; conditions: mouse spleen T cells, 3 days; for inhibition at 0.01 µM / inhibition at 0.1 µM / inhibition at 1 µM / inhibition at 10 µM / inhibition at 30 µM / inhibition at 50 µM: Mus musculus, T-cell, 72 h, read-out: Proliferation inhibition rate (%)
Procedure, shortened: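 Proliferation inhibition (%) came from flow cytometry of CFSE dilution after 3 days' culture at 37 °C with compound (10 nM, 100 nM, 1, 10, 30, 50 μM; triplicate wells). Cells were magnetically purified T cells from C57BL/6 mouse spleens, 2×10^5 per well, stimulated with 0.5 μg/mL each anti-CD3 and anti-CD28.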

[2] = tested on: HCT-116 colon cancer cell lines; assay: Matrigel Invasion Assay, HCT-116; type: cell-based, human; conditions: 24 hours treatment, FIG. 30
Protocol: To evaluate the metastasis inhibitory efficacy of the compounds of the present invention on HCT-116 colon cancer cell lines, an Invasion Assay using Matrigel was performed to assess the cells' invasion ability.
First, Matrigel was thawed on ice in RPMI-1640 medium without FBS, then diluted with DMEM at a ratio of 1:20.
The diluted Matrigel mixture was applied to the upper chamber at 100 μl per well, and 750 μl of RPMI-1640 without FBS was added to the lower chamber.
The plates were then incubated at 37° C. for 1 hour to allow the Matrigel to solidify.
After coating, the Matrigel mixture in the upper chamber was removed using a pipette, and the chamber was washed with RPMI without FBS.
Human-derived colorectal cancer cell line HCT-116, obtained from the Korean Cell Bank, was cultured in RPMI-1640 medium containing 10% FBS.
Following stabilization, the cells were harvested using Trypsin-EDTA treatment, centrifuged at 1,200 rpm for 3 minutes, the supernatant was removed, and the cells were resuspended in the same medium, the medium in the lower chamber was replaced with 750 μl of RPMI-1640 supplemented with 10% FBS, and the cells were seeded into the upper chamber at a density of 5×10^4 cells/well.
The cells were cultured for 24 hours after attachment, and then the compounds according to the present invention (G078, G085, G086, G088, G089, PBK-2024-010, PBK-2025-010, PBK-2025-013, PBK-2025-016) and the control substance DMSO were diluted and added to the upper chamber after removing the medium.
Additionally, the medium in the lower chamber was replaced with fresh RPMI-1640 containing FBS, and the culture was continued.
After an additional 24 hours, the medium was removed, and 1 ml of methanol was added for 10 minutes to fix the cells.
Subsequently, 1 ml of Hematoxylin was added and reacted for 5 minutes, followed by 1 ml of Eosin, which was reacted for 30 seconds. The sample was then washed with distilled water (DW).
After staining was complete, any remaining cells in the upper chamber were removed. Finally, the infiltrated cells were observed under a microscope, photographed, and the degree of infiltration was analyzed.

[3] = tested on: Human B Lymphocyte cell line, SU-DHL-8; assay: Relative cell viability CCK-8, SU-DHL-8; type: cell-based; conditions: for viability at 1 µM / viability at 10 µM / viability at 30 µM / viability at 50 µM: Homo sapiens, SU-DHL-8, 48 h; for viability at 1 µM: read-out: Relative cell viability (%), SU-DHL-8, 1 μM; for viability at 10 µM: read-out: Relative cell viability (%), SU-DHL-8, 10 μM; for viability at 30 µM: read-out: Relative cell viability (%), SU-DHL-8, 30 μM; for viability at 50 µM: read-out: Relative cell viability (%), SU-DHL-8, 50 μM
Procedure, shortened: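 Cells grown in RPMI-1640 with 10% FBS, treated with compound at several concentrations, then given CCK-8 for 4 h at 37° C. Viability expressed as percent of DMSO-treated cells.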

[4] = tested on: Human Colorectal Carcinoma cell line, HCT-116; assay: Relative cell viability CCK-8, HCT-116; type: cell-based; conditions: Homo sapiens, HCT-116, 48 hours
Protocol: (§1) Human-derived breast cancer cell line MCF-7, human-derived lung cancer cell line A549, human-derived colorectal cancer cell line HCT-116, human pancreatic cancer cell line AsPC-1, glioblastoma cell line A172, and melanoma cell line Malme-3M were obtained from the Korean Cell Bank. gastric cancer cell line SNU-719, and bladder cancer cell line T24 were cultured in RPMI-1640 medium containing 10% FBS.
(§2) Following stabilization, the cells were harvested using Trypsin-EDTA treatment, centrifuged at 1,200 rpm for 3 minutes, the supernatant was removed, and the cells were resuspended in the same medium. They were then seeded into a 96-well plate (Costar 96-well cell culture plate, Corning) at 100 μL per well, and the conditions were adjusted as indicated in Table 5.
(§3) The cells were cultured in a 5% CO2 incubator at 37° C. for 24 hours, and after stabilization of the cells, each plate was washed with 200 μL of PBS per well and treated with 50 μL of culture medium per well.
(§4) After that, 10 μL of CCK-8 was added to each well, and the plate was incubated again at 37° C. in a 5% CO2 incubator for 2 hours.
(§5) In other words, when the survival rate of untreated cells (DMSO) is set at 100%, the relative cell survival rate in each group treated with the drug at different concentrations is indicated.

[5] = tested on: Human Pancreas Adenocarcinoma cell line, AsPC-1; assay: Relative cell viability CCK-8, AsPC-1; type: cell-based; conditions: 48 hours; for viability at 1 µM: ASPC1, 1 μM; for viability at 10 µM: ASPC1, 10 μM; for viability at 30 µM: ASPC1, 30 μM; for viability at 50 µM: ASPC1, 50 μM
Protocol: as §1, §2, §3, §4, §5

[6] = tested on: Human Bladder cancer cell, T24; assay: Relative cell viability CCK-8, T24; type: cell-based; conditions: Homo sapiens, 48 h
Protocol: as §1, §2, §3, §4, §5

[7] = tested on: Human Head and Neck cancer, Fadu; assay: Relative cell viability CCK-8, Fadu; type: cell-based; conditions: Homo sapiens, FaDu, Fadu cells, relative to untreated cells
Protocol: Human-derived head and neck cancer cell line Fadu and osteosarcoma cell line Saos-2 were cultured in MEM medium containing 10% FBS, 100 U/mL penicillin, and 100 μg/mL streptomycin.
as §2, §3, §4, §5

[8] = tested on: Human Gastric cancer cell, SNU-719; assay: Relative cell viability CCK-8, SNU-719; type: cell-based; conditions: 48 hours
Protocol: as §1, §2, §3, §4, §5

[9] = 48 hours, untreated (DMSO) = 100%

Row | Compound | Proliferation inhibition rate (%) ([1]; compound 10 nM) | Proliferation inhibition rate (%) ([1]; compound 100 nM) | Proliferation inhibition rate (%) ([1]; compound 1 μM) | Proliferation inhibition rate (%) ([1]; compound 10 μM) | Proliferation inhibition rate (%) ([1]; compound 30 μM) | Proliferation inhibition rate (%) ([1]; compound 50 μM) | Number of infiltrated cells (invasion) [2] | inhibition at 0.01 µM ([1]; compound 10 nM) [%] | inhibition at 0.1 µM ([1]; compound 100 nM) [%] | inhibition at 1 µM ([1]; compound 1 μM) [%] | inhibition at 10 µM ([1]; compound 10 μM) [%] | inhibition at 30 µM ([1]; compound 30 μM) [%] | inhibition at 50 µM ([1]; compound 50 μM) [%] | viability at 1 µM [3, 9] [%] | viability at 10 µM [3, 9] [%] | viability at 30 µM [3, 9] [%] | viability at 50 µM [3, 9] [%] | viability at 1 µM [4] [%] | viability at 10 µM [4] [%] | viability at 30 µM [4] [%] | also measured
1 | 12-(4-hydroxypiperazin-1-yl)dodecyl-N-(6-aminopurazin-2-yl) carboxamide [Compound 10] | 100.00 | 100.00 | 100.00 | 100.00 | 100.00 | 100.00 | reduction in the number of infiltrated cells |  |  |  |  |  |  |  |  |  |  |  |  |  | 
2 | Nc1ncccc1C(=O)NCCCCCCCCCCCCN1CCSC1 [Compound 31, 2-Amino-N-(12-(thiazolidin-3-yl)dodecyl)nicotinamide] |  |  |  |  |  |  |  | 8.01 | 77.2 | 100 | 100 | 100 | 100 | 5.57 | 4.36 | 1 | 0.23 | 11.6 | 13.2 | 12.3 | viability at 50 µM [4]: 12%; viability at 1 µM [5]: 40.8%; viability at 10 µM [5]: 41%; viability at 30 µM [5]: 39.4%; viability at 50 µM [5]: 36.6%; viability at 1 µM [6]: 7.59%; viability at 10 µM [6]: 7.06%; viability at 30 µM [6]: 7.58%; viability at 50 µM [6]: 6.92%
3 | CN(C)C1CCCCN(CCCCCCCCCCCCNC(=O)c2cccnc2N)C1 (stereo not shown) [Compound 45, 2-Amino-N-(12-(3-(dimethylamino)azepan-1-yl)dodecyl)nicotinamide] |  |  |  |  |  |  |  | 0.16 | 100 | 100 | 100 | 100 | 100 | 1.91 | 1.27 | 0.53 |  |  |  |  | Relative cell viability (%), SU-DHL-8 ([3]; human, 48 h, 50 µM): −1.31%; viability at 1 µM [6]: 9.91%; viability at 10 µM [6]: 11%; viability at 30 µM [6]: 9.95%; viability at 50 µM [6]: 9.04%; viability at 1 µM ([7]; 1 μM): 29.8%; viability at 10 µM ([7]; 10 μM): 74.1%; viability at 30 µM ([7]; 30 μM): 60%; viability at 50 µM ([7]; 50 μM): 18.2%
4 | CC(C)(C)OC(=O)N[C@H]1CCN(CCCCCCCCCCCCNC(=O)c2cccnc2N)C1 [Compound 49, tert-Butyl(S)-(1-(12-(2-aminonicotinamido)dodecyl)pyrrolidin-3-yl) carbamate] | −22.61 | 100.00 | 100.00 | 100.00 | 100.00 | 100.00 | reduction in the number of infiltrated cells |  |  |  |  |  |  |  |  |  |  |  |  |  | Relative cell viability (%), SU-DHL-8 ([3]; 1 μM, 48 hours, untreated (DMSO) = 100%): 8.93%; Relative cell viability (%), SU-DHL-8 ([3]; 10 μM, 48 hours, untreated (DMSO) = 100%): 8.02%; Relative cell viability (%), SU-DHL-8 ([3]; 30 μM, 48 hours, untreated (DMSO) = 100%): 7.48%; Relative cell viability (%), SU-DHL-8 ([3]; 50 μM, 48 hours, untreated (DMSO) = 100%): 4.09%
5 | Nc1ncccc1C(=O)NCCCCCCCCCCCCN1CC(F)C1 [Compound 52, 2-Amino-N-(12-(3-fluoroazetidin-1-yl)dodecyl)nicotinamide] |  |  |  |  |  |  | reduction in the number of infiltrated cells | 11.3 | 13.8 | 100 | 100 | 100 | 100 | 14.2 | 11.6 | 10.1 | 9.15 | 33.6 | 13.3 | 12.7 | viability at 50 µM [4]: 11.8%; viability at 1 µM ([8]; 1 μM): 41.2%; viability at 10 µM ([8]; 10 μM): 35.9%; viability at 30 µM ([8]; 30 μM): 35.5%; viability at 50 µM ([8]; 50 μM): 35%
6 | Nc1ncccc1C(=O)NCCCCCCCCCCCCN1CCc2ccccc21 [Compound 89, 2-Amino-N-(12-(indolin-1-yl)dodecyl)nicotinamide] |  |  |  |  |  |  |  | -3.34 | 100 | 100 | 100 | 100 | 100 | 1.33 | 0.82 | 0.48 |  |  |  |  | Relative cell viability (%), SU-DHL-8 ([3]; human, 48 h, 50 µM): −0.86%; viability at 1 µM [5]: 30.3%; viability at 10 µM [5]: 19.2%; viability at 30 µM [5]: 17.8%; viability at 50 µM [5]: 17.8%
